Experimental findings from ChEMBL document CHEMBL1130231, “Betidamino acid scan of the GnRH antagonist acyline” (J Med Chem, 1997) are described below.

Common to all, as to format: functional, organism-based
The subject of assay [1] is Rattus norvegicus. As to the kind of experiment: Ratio of ovulated rats to total number of rats determined in a anti-ovulatory assay by administering 5 microg of compound; 2/8.
Assay [2] relates to Rattus norvegicus. Kind of assay: Ratio of ovulated rats to total number of rats determined in a anti-ovulatory assay by administering 250 microg of compound; 6/8.
Assay [3] concerns Rattus norvegicus. As to the kind of experiment: Ratio of ovulated rats to total number of rats determined in a anti-ovulatory assay by administering 2.5 microg of compound; 0/4.
Assay [4] has as its system Rattus norvegicus. Kind of assay: Ratio of ovulated rats to total number of rats determined in a anti-ovulatory assay by administering 1 microg of compound; 3/3.
For assay [5], the system named is Rattus norvegicus. As to the kind of experiment: Ratio of ovulated rats to total number of rats determined in a anti-ovulatory assay by administering 0.5 microg of compound; 9/11.
Assay [6] concerns Rattus norvegicus. As to the kind of experiment: Ratio of ovulated rats to total number of rats determined in a anti-ovulatory assay by administering 1 microg of compound; 6/17.
Assay [7] concerns Rattus norvegicus. As to the kind of experiment: Ratio of ovulated rats to total number of rats determined in a anti-ovulatory assay by administering 10 microg of compound; 0/8.
Assay [8] relates to Rattus norvegicus. As to the kind of experiment: Ratio of ovulated rats to total number of rats determined in a anti-ovulatory assay by administering 2.5 microg of compound; 2/8.
For assay [9], the system named is Rattus norvegicus. Kind of assay: Ratio of ovulated rats to total number of rats determined in a anti-ovulatory assay by administering 2.5 microg of compound; 0/8.
Assay [10] concerns Rattus norvegicus. As to the kind of experiment: Ratio of ovulated rats to total number of rats determined in a anti-ovulatory assay by administering 1 ug of compound; 2/8.
Assay [11] relates to Rattus norvegicus. As to the kind of experiment: Ratio of ovulated rats to total number of rats determined in a anti-ovulatory assay by administering 5 microg of compound; 1/8.
Assay [12] concerns Rattus norvegicus. As to the kind of experiment: Ratio of ovulated rats to total number of rats determined in a anti-ovulatory assay by administering 1 microg of compound; 5/8.
Assay [13] has as its system Rattus norvegicus. As to the kind of experiment: Ratio of ovulated rats to total number of rats determined in a anti-ovulatory assay by administering 1 microg of compound; 8/8.
Assay [14] relates to Rattus norvegicus. As to the kind of experiment: Ratio of ovulated rats to total number of rats determined in a anti-ovulatory assay by administering 10 microg of compound; 7/8.
For assay [15], the system named is Rattus norvegicus. Kind of assay: Ratio of ovulated rats to total number of rats determined in a anti-ovulatory assay by administering 25 microg of compound; 0/8.
The test system of assay [16] is Rattus norvegicus. Kind of assay: Ratio of ovulated rats to total number of rats determined in a anti-ovulatory assay by administering 5 microg of compound; 5/8.
Assay [17] deals with Rattus norvegicus. Kind of assay: Ratio of ovulated rats to total number of rats determined in a anti-ovulatory assay by administering 1 microg of compound; 3/8.
Assay [18] has as its system Rattus norvegicus. As to the kind of experiment: Ratio of ovulated rats to total number of rats determined in a anti-ovulatory assay by administering 25 microg of compound; 4/8.
Assay [19] concerns Rattus norvegicus. Kind of assay: Ratio of ovulated rats to total number of rats determined in a anti-ovulatory assay by administering 10 microg of compound; 8/8.
The subject of assay [20] is Rattus norvegicus. Kind of assay: Ratio of ovulated rats to total number of rats determined in a anti-ovulatory assay by administering 10 microg of compound; 1/8.
The subject of assay [21] is Rattus norvegicus. Kind of assay: Ratio of ovulated rats to total number of rats determined in a anti-ovulatory assay by administering 2.5 microg of compound; 8/8.

Activity calls are given as the source filed them. No cut-off for these calls is given here.

For `CC(=O)Nc1ccc(C[C@H](NC(=O)[C@@H](NC(=O)CO)NC(=O)[C@@H](Cc2cccnc2)NC(=O)[C@@H](Cc2ccc(Cl)cc2)NC(=O)[C@@H](Cc2ccc3ccccc3c2)NC(C)=O)C(=O)N[C@H](Cc2ccc(NC(C)=O)cc2)C(=O)N[C@@H](CC(C)C)C(=O)N[C@@H](CCCCNC(C)C)C(=O)N2CCC[C@@H]2C(=O)N[C@H](C)C(N)=O)cc1` (single isomer, unassigned), the ov. rat/total entry with Rattus norvegicus [1] was “Partially active”. Take `CC(=O)Nc1ccc(C[C@H](NC(=O)[C@H](CO)NC(=O)[C@@H](Cc2cccnc2)NC(=O)[C@@H](NC(=O)[C@@H](Cc2ccc3ccccc3c2)NC(C)=O)N(C)C(=O)c2ccc(Cl)cc2)C(=O)N[C@H](Cc2ccc(NC(C)=O)cc2)C(=O)N[C@@H](CC(C)C)C(=O)N[C@@H](CCCCNC(C)C)C(=O)N2CCC[C@@H]2C(=O)N[C@H](C)C(N)=O)cc1` (mixture of isomers): in the assay with Rattus norvegicus [2], the ov. rat/total entry is “inactive”. In the case of `CC(=O)Nc1ccc(C[C@H](NC(=O)[C@H](CO)NC(=O)[C@@H](Cc2cccnc2)NC(=O)[C@@H](Cc2ccc(Cl)cc2)NC(=O)[C@@H](Cc2ccc3ccccc3c2)NC(C)=O)C(=O)N[C@H](Cc2ccc(NC(C)=O)cc2)C(=O)N[C@@H](CC(C)C)C(=O)N[C@@H](CCCCNC(C)C)C(=O)N2CCC[C@@H]2C(=O)N[C@@H](NC=O)C(N)=O)cc1` (single isomer, unassigned), the ov. rat/total result in the assay with Rattus norvegicus [3] is “Active”. In addition, in the assay on Rattus norvegicus [4], the ov. rat/total result was “inactive”. For `CC(=O)Nc1ccc(C[C@H](NC(=O)[C@H](CO)NC(=O)[C@@H](Cc2cccnc2)NC(=O)[C@@H](Cc2ccc(Cl)cc2)NC(=O)[C@@H](Cc2ccc3ccccc3c2)NC(C)=O)C(=O)N[C@H](Cc2ccc(NC(C)=O)cc2)C(=O)N[C@@H](CC(C)C)C(=O)N[C@@H](CCCCNC(C)C)C(=O)N2CCC[C@@H]2C(=O)N[C@H](NC=O)C(N)=O)cc1` (single isomer, unassigned), the ov. rat/total result in the assay with Rattus norvegicus [5] was “inactive”. In addition, the ov. rat/total result in the assay on Rattus norvegicus [6] is “Partially active”.

Consider `CC(=O)Nc1ccc(C[C@H](NC(=O)[C@H](CO)NC(=O)[C@@H](NC(=O)c2ccncc2)NC(=O)[C@@H](Cc2ccc(Cl)cc2)NC(=O)[C@@H](Cc2ccc3ccccc3c2)NC(C)=O)C(=O)N[C@H](Cc2ccc(NC(C)=O)cc2)C(=O)N[C@@H](CC(C)C)C(=O)N[C@@H](CCCCNC(C)C)C(=O)N2CCC[C@@H]2C(=O)N[C@H](C)C(N)=O)cc1` (single isomer, unassigned), for which the ov. rat/total result in the assay on Rattus norvegicus [7] is “Active”. For the same compound, the ov. rat/total entry in the assay with Rattus norvegicus [8] was “Partially active”. `CC(=O)Nc1ccc(C[C@@H](NC(=O)[C@@H](NC(=O)c2ccc(NC(C)=O)cc2)NC(=O)[C@H](CO)NC(=O)[C@@H](Cc2cccnc2)NC(=O)[C@@H](Cc2ccc(Cl)cc2)NC(=O)[C@@H](Cc2ccc3ccccc3c2)NC(C)=O)C(=O)N[C@@H](CC(C)C)C(=O)N[C@@H](CCCCNC(C)C)C(=O)N2CCC[C@@H]2C(=O)N[C@H](C)C(N)=O)cc1`: the ov. rat/total result with Rattus norvegicus [1] was “Partially active”.

Take `CC(=O)Nc1ccc(C[C@H](NC(=O)[C@H](CO)NC(=O)[C@@H](Cc2cccnc2)NC(=O)[C@H](NC(=O)c2c[nH]nc2N)NC(=O)[C@@H](Cc2ccc3ccccc3c2)NC(C)=O)C(=O)N[C@H](Cc2ccc(NC(C)=O)cc2)C(=O)N[C@@H](CC(C)C)C(=O)N[C@@H](CCCCNC(C)C)C(=O)N2CCC[C@@H]2C(=O)N[C@H](C)C(N)=O)cc1`: the ov. rat/total entry with Rattus norvegicus [2] is “inactive”.

Consider `CC(=O)Nc1ccc(C[C@H](NC(=O)[C@H](CO)NC(=O)[C@@H](Cc2cccnc2)NC(=O)[C@@H](Cc2ccc(Cl)cc2)NC(=O)[C@@H](NC(C)=O)N(C)C(=O)c2ccc3ccccc3c2)C(=O)N[C@H](Cc2ccc(NC(C)=O)cc2)C(=O)N[C@@H](CC(C)C)C(=O)N[C@@H](CCCCNC(C)C)C(=O)N2CCC[C@@H]2C(=O)N[C@H](C)C(N)=O)cc1` (single isomer, unassigned), for which the ov. rat/total result in the assay on Rattus norvegicus [9] was “Active”. In addition, in the assay on Rattus norvegicus [10], the ov. rat/total entry was “Partially active”. In the case of `CC(=O)Nc1ccc(C[C@H](NC(=O)[C@H](CO)NC(=O)[C@@H](Cc2cccnc2)NC(=O)[C@@H](Cc2ccc(Cl)cc2)NC(=O)[C@@H](Cc2ccc3ccccc3c2)NC(C)=O)C(=O)N[C@H](Cc2ccc(NC(C)=O)cc2)C(=O)N[C@H](C(=O)N[C@@H](CCCCNC(C)C)C(=O)N2CCC[C@@H]2C(=O)N[C@H](C)C(N)=O)N(C)C(C)=O)cc1`, in the assay with Rattus norvegicus [8], the ov. rat/total result is “Partially active”. For the same compound, the ov. rat/total result with Rattus norvegicus [11] is “Active”. On to `CC(=O)Nc1ccc(C[C@@H](NC(=O)[C@H](NC(=O)[C@H](CO)NC(=O)[C@@H](Cc2cccnc2)NC(=O)[C@@H](Cc2ccc(Cl)cc2)NC(=O)[C@@H](Cc2ccc3ccccc3c2)NC(C)=O)N(C)C(=O)c2ccc(NC(C)=O)cc2)C(=O)N[C@@H](CC(C)C)C(=O)N[C@@H](CCCCNC(C)C)C(=O)N2CCC[C@@H]2C(=O)N[C@H](C)C(N)=O)cc1`, for which the ov. rat/total result in the assay with Rattus norvegicus [9] was “Active”. Further, the ov. rat/total entry in the assay on Rattus norvegicus [12] is “Partially active”. For the compound `CC(=O)Nc1ccc(C[C@H](NC(=O)[C@H](CO)NC(=O)[C@@H](Cc2cccnc2)NC(=O)[C@@H](Cc2ccc(Cl)cc2)NC(=O)[C@@H](Cc2ccc3ccccc3c2)NC(C)=O)C(=O)N[C@H](Cc2ccc(NC(C)=O)cc2)C(=O)N[C@@H](CC(C)C)C(=O)N[C@@H](CCCCNC(C)C)C(=O)N2CCC[C@@H]2C(=O)N[C@@H](C)C(N)=O)cc1`, in the assay with Rattus norvegicus [13], the ov. rat/total entry was “inactive”. The ov. rat/total result with Rattus norvegicus [9] was “Active”. As for `CC(=O)Nc1ccc(C[C@H](NC(=O)[C@H](CO)NC(=O)[C@@H](Cc2cccnc2)NC(=O)[C@@H](Cc2ccc(Cl)cc2)NC(=O)[C@H](NC(C)=O)N(C)C(=O)c2ccc3ccccc3c2)C(=O)N[C@H](Cc2ccc(NC(C)=O)cc2)C(=O)N[C@@H](CC(C)C)C(=O)N[C@@H](CCCCNC(C)C)C(=O)N2CCC[C@@H]2C(=O)N[C@H](C)C(N)=O)cc1`, in the assay with Rattus norvegicus [14], the ov. rat/total entry is “inactive”. In addition, the ov. rat/total entry in the assay with Rattus norvegicus [15] was “Active”. With `CC(=O)Nc1ccc(C[C@H](NC(=O)[C@H](CO)NC(=O)[C@@H](Cc2cccnc2)NC(=O)[C@@H](Cc2ccc(Cl)cc2)NC(=O)[C@@H](Cc2ccc3ccccc3c2)NC(C)=O)C(=O)N[C@H](Cc2ccc(NC(C)=O)cc2)C(=O)N[C@@H](NC(C)=O)C(=O)N[C@@H](CCCCNC(C)C)C(=O)N2CCC[C@@H]2C(=O)N[C@H](C)C(N)=O)cc1`, the ov. rat/total result in the assay with Rattus norvegicus [7] is “Active”. The ov. rat/total result with Rattus norvegicus [16] was “Partially active”.

As to `CN[C@@H](NC(=O)[C@H]1CCCN1C(=O)[C@H](CCCCNC(C)C)NC(=O)[C@H](CC(C)C)NC(=O)[C@@H](Cc1ccc(NC(C)=O)cc1)NC(=O)[C@H](Cc1ccc(NC(C)=O)cc1)NC(=O)[C@H](CO)NC(=O)[C@@H](Cc1cccnc1)NC(=O)[C@@H](Cc1ccc(Cl)cc1)NC(=O)[C@@H](Cc1ccc2ccccc2c1)NC(C)=O)C(N)=O`, the ov. rat/total entry in the assay on Rattus norvegicus [13] was “inactive”. Moreover, the ov. rat/total result in the assay on Rattus norvegicus [9] was “Active”. In the case of `CC(=O)Nc1ccc(C[C@H](NC(=O)[C@H](CO)NC(=O)[C@@H](Cc2cccnc2)NC(=O)[C@@H](Cc2ccc(Cl)cc2)NC(=O)[C@@H](Cc2ccc3ccccc3c2)NC(C)=O)C(=O)N[C@H](Cc2ccc(NC(C)=O)cc2)C(=O)N[C@@H](CC(C)C)C(=O)N[C@@H](CCCCNC(C)C)C(=O)N2CCC[C@@H]2C(=O)N[C@H](N)C(N)=O)cc1`, in the assay on Rattus norvegicus [9], the ov. rat/total result was “Active”. Moreover, the ov. rat/total result in the assay with Rattus norvegicus [17] is “Partially active”. `CC(=O)Nc1ccc(C[C@@H](NC(=O)[C@H](NC(=O)c2ccc(O)cc2)NC(=O)[C@H](CO)NC(=O)[C@@H](Cc2cccnc2)NC(=O)[C@@H](Cc2ccc(Cl)cc2)NC(=O)[C@@H](Cc2ccc3ccccc3c2)NC(C)=O)C(=O)N[C@@H](CC(C)C)C(=O)N[C@@H](CCCCNC(C)C)C(=O)N2CCC[C@@H]2C(=O)N[C@H](C)C(N)=O)cc1`: the ov. rat/total entry in the assay with Rattus norvegicus [9] was “Active”. The ov. rat/total entry in the assay on Rattus norvegicus [12] was “Partially active”.

For the compound `CC(=O)Nc1ccc(C[C@H](NC(=O)[C@H](CO)NC(=O)[C@@H](Cc2cccnc2)NC(=O)[C@@H](Cc2ccc(Cl)cc2)NC(=O)[C@@H](Cc2ccc3ccccc3c2)NC(C)=O)C(=O)N[C@H](C(=O)N[C@@H](CC(C)C)C(=O)N[C@@H](CCCCNC(C)C)C(=O)N2CCC[C@@H]2C(=O)N[C@H](C)C(N)=O)N(C)C(=O)c2ccc(NC(C)=O)cc2)cc1` (mixture of isomers), in the assay with Rattus norvegicus [18], the ov. rat/total result was “Partially active”. Also, in the assay with Rattus norvegicus [19], the ov. rat/total entry is “inactive”. For the compound `CC(=O)Nc1ccc(C[C@H](NC(=O)[C@H](NC(=O)[C@@H](Cc2cccnc2)NC(=O)[C@@H](Cc2ccc(Cl)cc2)NC(=O)[C@@H](Cc2ccc3ccccc3c2)NC(C)=O)N(C)C=O)C(=O)N[C@H](Cc2ccc(NC(C)=O)cc2)C(=O)N[C@@H](CC(C)C)C(=O)N[C@@H](CCCCNC(C)C)C(=O)N2CCC[C@@H]2C(=O)N[C@H](C)C(N)=O)cc1` (single isomer, unassigned), the ov. rat/total entry in the assay on Rattus norvegicus [20] was “Active”. In addition, the ov. rat/total result in the assay on Rattus norvegicus [21] is “inactive”.
